Earlier results as cited in patent US10329321B2, “Site-selective functionalization of proteins using traceless affinity labels” (priority 2016, dated 2019).

What was measured:
[1] = imidazole ring of histidine or its fluorinated replacement
[2] = molecular target: nucleotide binding pocket (NBP) in immunoglobulin Fab arms; settings: binding affinity dependent on the antibody

Compound | pKa [1] | Kd [2] [µM]
Fc1c[nH]cn1 [4-fluoro-imidazole] | ~1.76 | 
O=C(O)CCCc1c[nH]c2ccccc12 [indole-3-butryic acid, 4-(3-indolyl)butyric acid] |  | 1 to 8
N[C@@H](Cc1c[nH]cn1)C(=O)O [histidine] | ~6 | 
Fc1ncc[nH]1 [2-fluoro-imidazole] | ~1.22 | 
